Assay results as given in patent US20260306460A1, “COMPOSITION FOR REMOVING AND INHIBITING SENESCENT CELLS, AND USES THEREOF” (LIFECEUTIX CO., LTD., priority 2023, published 2026).
*1 amine or outer side, *2 acyl side, *3 side chain or, on linkers, in order; H or OH if unused. Where a SMILES comes first, the peptide text is derived from it. Bridges are numbered along the chain shown (N, C = ends). [ ]: non-standard residue; d: D form. The star is where a group is joined. X1 = CC[C@H](C)[C@@H](N[*:1])[C@@H](O)CC(=O)O[C@H](C(=O)[C@H](C)C(=O)[*:2])C(C)C; NMeY = CN[C@@H](Cc1ccc(O)cc1)C(=O)O; dNMeL = CN[C@H](CC(C)C)C(=O)O; Pyruvoyl = CC(=O)C(=O)*

Key:
senescent cells = assay: Viability of senescent cells (CellTiter-Glo), Example 17, Table 13; settings: Homo sapiens, read-out: Survival (%)
Method: Cells induced to undergo senescence by doxorubicin treatment were treated with test compound at designated concentrations and measured using the CellTiter-Glo Luminescent Cell Viability Assay (Promega).

senescent A549 cells = assay: Viability of senescent A549 cells (CellTiter-Glo), Example 18, Table 15; settings: Homo sapiens, A549, read-out: Survival (%)
Method: Senescence-induced cancer cells treated with doxorubicin were treated with the test compound at designated concentrations, and cell viability was measured using the CellTiter-Glo Luminescent Cell Viability Assay (Promega).

Row | Compound | viability at 1.1 µM (senescent cells) | viability at 10 µM (senescent cells) | viability at 1.1 µM (senescent A549 cells) | viability at 10 µM (senescent A549 cells) | viability at 30 µM (senescent cells) | viability at 30 µM (senescent A549 cells) | viability at 90 µM (senescent A549 cells) | viability at 90 µM (senescent cells)
1 | O=C1Nc2ccccc2/C1=C1/Nc2ccc(C(=O)NCC3CCN(C(=O)CCl)CC3)cc2C1=O [LX-5328] | 54.3% | 2% | 62.7% | 0.4% |  |  |  | 
2 | CC(C)(C)OC(=O)NC1CCN(c2ccc(-c3cnc4[nH]cc(C(=O)C(=O)NCCc5ccccn5)c4c3)cn2)CC1 [LX-5341] | 99.1% | 48.5% | 94.6% | 55.4% | 3.5% | 13.7% |  | 
3 | C#Cc1nc(C(=O)N2[C@@H](CCCC)Cc3cc(C=C)ccc3[C@@H]2c2ccc(NC34CC5CC(CC(C5)C3)C4)cc2)cs1 [LX-5362] | 42.5% |  | 61.8% |  |  |  |  | 
4 | C[C@H]1Oc2cc(cnc2N)-c2c(nn(C)c2C#N)CN(C)C(=O)c2ccc(F)cc21 [LX-5449, Lorlatinib] | 89.1% | 44.1% | 91.3% | 44.3% | 8.7% | 2.4% |  | 
5 | NC(=O)c1ccc(-c2cc3c(NC4CCS(=O)(=O)CC4)cccc3n2CC(F)(F)F)cc1 [LX-5904] | 103% | 25.9% | 95.4% | 45.2% | 2.2% | 10.9% |  | 
6 | C=C(C#N)CNc1c(OC)ccc2ccc(-c3ccc(S(C)(=O)=O)cn3)cc12 [LX-5906] | 97.2% | 30.7% | 98.7% | 41.5% | 0.4% | 5.9% |  | 
7 | C=C(CN1Cc2c(ccc3ccc(-c4cc(NC(C)=O)cc(OC)c4)cc23)C1=O)C(N)=O [LX-5907] | 95.5% | 19.5% | 91.8% | 39.4% | 1.7% | 14.4% |  | 
8 | NS(=O)(=O)OC[C@@H]1C[C@@H](n2ccc3c(N[C@H]4CCc5ccccc54)ncnc32)C[C@@H]1O [LX-6202, Pevonedistat] | 1.5% |  | 53.3% |  |  |  |  | 
9 | COc1cc(Nc2ncc3c(n2)-c2ccc(Cl)cc2C(c2c(F)cccc2OC)=NC3)ccc1C(=O)O [LX-6203, Alisertib] | 75.1% | 13.1% | 96.4% | 30.7% |  | 2.1% |  | 
10 | CCN(CCCOc1ccc2c(Nc3cc(CC(=O)Nc4cccc(F)c4)n[nH]3)ncnc2c1)CCOP(=O)(O)O [LX-6205, Barasertib] | 3.8% |  | 57.4% |  |  |  |  | 
11 | CC[C@@H]1C(=O)N(C)c2cnc(Nc3ccc(C(=O)N[C@H]4CC[C@H](N5CCN(CC6CC6)CC5)CC4)cc3OC)nc2N1C(C)C [LX-6207, Volasertib] | 68.7% | 8.6% | 88.2% | 41% |  | 9.4% |  | 
12 | CC[C@H](C)[C@H]1NC(=O)[C@@H](NC(=O)[C@@H](CC(C)C)N(C)C(=O)[C@@H]2CCCN2C(=O)C(C)=O)[C@@H](C)OC(=O)[C@H](Cc2ccc(OC)cc2)N(C)C(=O)[C@@H]2CCCN2C(=O)[C@H](CC(C)C)NC(=O)[C@@H](C)C(=O)[C@H](C(C)C)OC(=O)C[C@@H]1O [LX-6212, Plitidepsin] (Pyruvoyl-P[dNMeL]T[X1]LP[NMeY](Me); ester 3-C) | 52.3% |  | 75.7% | 0.9% |  |  |  | 
13 | Cc1cccc2c1NC(=O)[C@@H](NC(=O)[C@H](CCC(F)(F)F)[C@H](CCC(F)(F)F)C(N)=O)N=C2c1cccc(F)c1 [LX-6514] | 97.2% | 63.3% | 107% | 51.2% | 2.7% | 0.2% |  | 
14 | CCNCC[C@H](O)CNCCCCNC[C@@H](O)CCNCC [LX-6516, Ivospemin] | 93.3% | 71.1% | 91.7% | 79.6% | 31.8% | 27.6% |  | 
15 | Nc1nc2nc[nH]c2c(=S)[nH]1 [LX-6530, Thioguanine] | 106% | 112% | 97.9% | 83.9% | 46.1% | 61.1% | 10.3% | 
16 | C[C@@]12C[C@@]3(O)O[C@@H](O1)[C@]1(COC(=O)c4ccccc4)[C@H]3C[C@@]12O[C@@H]1O[C@H](CO)[C@@H](O)[C@H](O)[C@H]1O [LX-6804, Paeoniflorin] | 87.5% | 28.5% | 78.8% | 40.8% |  | 8.4% |  | 
17 | Nc1cc(F)ccc1NC(=O)c1ccc(CNC(=O)/C=C/c2cccnc2)cc1 [LX-6809, Chidamide] | 87.5% | 53.3% | 100% | 63.7% | 17.8% | 23.9% |  | 
18 | COc1ccc(F)cc1C(=O)NCc1ccc(-c2nn([C@@H](C)C(F)(F)F)c(N)c2C(N)=O)cc1 [LX-6981, Pirtobrutinib] | 0.2% |  | 43.1% |  |  |  |  | 

Row | Compound | viability at 1.1 µM (senescent cells) | viability at 10 µM (senescent cells) | viability at 1.1 µM (senescent A549 cells) | viability at 10 µM (senescent A549 cells) | viability at 30 µM (senescent cells) | viability at 30 µM (senescent A549 cells) | viability at 90 µM (senescent A549 cells) | viability at 90 µM (senescent cells)
19 | COc1ccc(CN2C3CC2CN(c2ccc(-c4cc(OCC(C)(C)O)cn5ncc(C#N)c45)cn2)C3)cn1 [LX-6988, Selpercatinib] | 93.5% | 53.7% | 98.2% | 46.3% | 3.7% | 5.7% |  | 
20 | CCCCCCCC/C(=C\CCCCCCCC(=O)O)[N+](=O)[O-] [LX-7111, 10-Nitrooleic acid] | 78.1% | 22% | 79.2% | 43.7% |  | 0.8% |  | 
21 | O=c1sn(-c2cccc3ccccc23)c(=O)n1Cc1ccccc1 [LX-7121, Tideglusib] | 94.7% | 57.9% | 76.5% | 52.4% | 3.9% | 12.8% |  | 
22 | COc1ccc(C[C@@H](C)[C@@H](C)Cc2ccc(OC)c(OC)c2)cc1OC [LX-7122, Terameprocol] | 109% | 94.4% | 118% | 71.3% | 39.3% | 15.7% |  | 
23 | Cn1cc(C2=C(c3cn(C4CCN(Cc5ccccn5)CC4)c4ccccc34)C(=O)NC2=O)c2ccccc21 [LX-7135, Enzastaurin] | 75.7% |  | 94.7% | 5.7% |  |  |  | 
24 | Cc1ccccc1CN1C(=O)C2=C(CCN(Cc3ccccc3)C2)N2CCN=C12 [LX-7261, Dordaviprone] | 63.7% |  | 52.4% |  |  |  |  | 
25 | O=C1C2=C(CCN(Cc3ccccc3)C2)N2CCN=C2N1Cc1ccc(F)cc1F [LX-7262] | 52.8% |  | 69.5% |  |  |  |  | 
26 | Nc1ncn([C@H]2C[C@@H](O)[C@@H](CO)S2)c(=O)n1 [LX-7288, 4′-thio-5-aza-2′-deoxycytidine] | 41.8% |  | 48.3% |  |  |  |  | 
27 | N=C(NC(=N)N1CCCC1)Nc1ccc(OC(F)(F)F)cc1 [LX-7403, Lixumistat] | 94.5% | 72.3% | 99.5% | 52.7% | 38.4% | 7.5% |  | 
28 | C#CCC(Cc1cnc2nc(N)nc(N)c2n1)c1ccc(C(=O)N[C@@H](CCC(=O)O)C(=O)O)cc1 (stereo partly shown) [LX-7405, Pralatrexate] | 100% | 79% | 94.7% | 78.4% | 40.6% | 12.1% |  | 
29 | CS(=O)(=O)c1ccc(Oc2cc(F)cc(C#N)c2)c2c1[C@H](O)[C@H](F)[C@@H]2F [LX-7451, Belzutifan] | 105% | 39.2% | 100% | 68.7% |  | 10.7% |  | 
30 | N[C@@H](CCC(=O)N[C@@H](CS(=O)(=O)CCOP(=O)(N(CCCl)CCCl)N(CCCl)CCCl)C(=O)N[C@@H](C(=O)O)c1ccccc1)C(=O)O [LX-7463, Canfosfamide] | 88.8% | 32.1% | 96.5% | 43.3% |  | 0.1% |  | 
31 | NS(=O)(=O)NCCNc1nonc1C(=NO)Nc1ccc(F)c(Br)c1 [LX-8804, Epacadostat] | 54.5% |  | 71.5% | 2.1% |  |  |  | 
32 | NCCCC(O)(P(=O)(O)O)P(=O)(O)O [LX-9105, Alendronate] | 102% | 96% | 105% | 96.2% | 89.9% | 57.1% | 6.9% | 4.2%
33 | Cc1ncc([N+](=O)[O-])n1CCO [LX-9107, Metronidazole] | 106% | 87.3% | 95.6% | 77.8% | 26.2% | 5% |  | 
34 | COc1cc(Cc2cnc(N)nc2N)cc(OC)c1OC [LX-9114, Trimethoprim] | 102% | 88.6% | 95.2% | 74.4% | 16.1% | 20.7% |  | 
35 | CC(C)C[C@H](CN)CC(=O)O [LX-9131, Pregabalin] | 81.9% | 47.7% | 91.7% | 83.3% | 13.2% | 57.9% | 12.4% | 
36 | CCOC(=O)C1=CCCC[C@H]1S(=O)(=O)Nc1ccc(F)cc1Cl [LX-9137, Resatorvid] | 90.5% | 43.8% | 91.8% | 37.2% | 14.6% | 8.8% |  | 
